Experimental data: the NIST ThermoML archive (doi:10.1016/j.fluid.2006.11.005)

Test: xn = mol fraction of the nth substance listed
Conditions: 101.33 kPa, Liquid

ClC(Cl)Cl [trichloromethane] + CCO
mass density [kg/m3]
Conditions	288.15 K	293.15 K	298.15 K	303.15 K	308.15 K	313.15 K
x2 = 0	1498.08	1488.64	1479.15	1469.61	1460.03	1450.41
x2 = 0.0485	1472.17	1462.84	1453.46	1444.03	1434.55	1425.03
x2 = 0.0997	1444.69	1435.55	1426.28	1416.99	1407.64	1398.25
x2 = 0.1993	1389.44	1380.64	1371.77	1362.83	1353.83	1344.78
x2 = 0.2999	1331.01	1322.64	1314.2	1305.7	1297.12	1288.5
x2 = 0.4002	1269.36	1261.46	1253.5	1245.47	1237.37	1229.18
x2 = 0.4984	1204.89	1197.52	1190.08	1182.57	1174.99	1167.34
x2 = 0.5504	1168.93	1161.84	1154.69	1147.44	1140.19	1132.84
x2 = 0.6001	1133.49	1126.69	1119.83	1112.9	1105.9	1098.85
x2 = 0.6949	1062.09	1055.88	1049.61	1043.28	1036.89	1030.44
x2 = 0.794	981.537	976.02	970.455	964.839	959.165	953.436
x2 = 0.8503	933.183	927.998	922.772	917.5	912.175	906.798
x2 = 0.9001	888.356	883.494	878.595	873.653	868.659	863.612
